Source: patent publication US11162071B2, “Compositions and methods for generating hair cells by upregulating JAG-1” (Frequency Therapeutics, Inc., priority 2018, dated 2021)
“Also recorded” adds a separate entry of the source.

What was measured:
[1] = test system: cochlear Lgr5 progenitor cells; test: Expansion and enrichment of Lgr5-GFP cochlear progenitor cells in 3D culture (Lgr5+ assay); format: cell-based, mouse
Source text: “Stem Cell Proliferation Assay” as used herein is an assay to determine the capacity for agent(s) to induce the creation of stem cells from a starting cell population. In an exemplary Stem Cell Proliferation Assay, the number of cells for an initial cell population is harvested from a Lgr5-GFP mouse such as a B6.129P2-Lgr5tm1(cre/ERT2)Cle/J mouse (also known as Lgr5-EGFP-IRES-creERT2 or Lgr5-GFP mouse, Jackson Lab Stock No: 008875) between the age of 0 to 5 days, by isolating the organ of Corti sensory epithelium and dissociating the epithelium into single cells. Approximately 5000 cells are entrapped in 40 μl of culture substrate (for example: Matrigel (Corning, Growth Factor Reduced)) and placed at the center of wells in a 24-well plate with 500 μl of an appropriate culture media, growth factors and agent being tested. Appropriate culture media and growth factors include Advanced DMEM/F12 with media Supplements (1×N2, 1× B27, 2 mM Glutamax, 10 mM HEPES, 1 mM N-acetylcysteine, and 100 U/ml Penicillin/100 μg/ml Streptomycin) and growth factors (50 ng/ml EGF, 50 ng/ml bFGF, and 50 ng/ml IGF-1) as well as the agent(s) being assessed are added into each well. Cells are cultured for 10 days in a standard cell culture incubator at 37° C. and 5% CO2, with media change every 2 days. The number of Lgr5+ cells is quantified by counting the number of cells identified as Lgr5+ in an In Vitro Lgr5 activity assay. The fraction of cells that are Lgr5+ is quantified by dividing the number of cells identified as Lgr5+ in a cell population by the total number of cells present in the cell population. The number of hair cells in a population may be measured by staining with hair cell marker (e.g., Myosin VIIa), or using an endogenous reporter of hair cell genes (e.g., Pou4f3-GFP, Atoh1-nGFP) and analyzing using flow cytometry. The fraction of cells that are hair cells is quantified by dividing the number of cells identified as hair cells in a cell population by the total number of cells present in the cell population. Gene and/or protein expression and/or activity is measured in this assay using methods known in the art such as by PCR, Nanostring, immunostaining, RNAseq, RNA hybridization, or Western blot analysis.
Neonatal Lgr5-EGFP-IRES-Cre-ER mice (The Jackson Laboratory, strain 8875) were used to analyze the effects of small molecules on cochlear stem cell expansion (see Barker et al., Nature 449, 1003-7 (2007). This strain allowed for visualization and quantification of EGFP cells.
All animal studies were conducted under an approved institutional protocol per National Institutes of Health guidelines. Using neonatal animals, cochleae were dissected and the organ of Corti (sensory epithelium) was separated from the stria vascularis (ion transport epithelium) and the modiolus (nerve tissue). Epithelia were then collected and treated with TrypLE for 15-20 minutes to obtain single cells. The cells were then filtered ([…]) and suspended in a Matrigel (Corning) dome for 3D culture seeded at 0.5 cochlea per well.
Expansion of Lgr5 Cells: Cells were cultured in a 3D system and bathed in a serum free 1:1 mixture of DMEM and F12, supplemented with Glutamax (GIBCO), N2, B27 (Invitrogen), EGF (50 ng/mL; Chemicon), bFGF (50 ng/mL; Chemicon), IGF-1 (50 ng/mL; Chemicon), and small molecules for seven days. Media was changed every other day. Treatments were run in triplicate or quadruplicate.
Lgr5 cells were quantified after 7-10 days. Cell colonies were dissociated into single cells using TrypLE. The cells were then stained with propidium iodide (PI) and analyzed using a flow cytometer to count Lgr5-EGFP cells. The percentage of viable Lgr5 cells was plotted against the concentration in GraphPad Prism.
Organ of Corti are dissected from Lgr5 GFP+ mice and dissociated as single cells as described above. Background media contains the same supplements and growth factors at the same concentrations as described above. […]

[2] = test system: HDAC; details: Table 6, cited from earlier work; for Class selectivity: HDAC class
[3] = test system: Jag-1; test: Jag-1 upregulation/expression in cultured Lgr5+ cells (qPCR); format: cell-based, mouse; details: for Jag-1 upregulation: EFI background (FIG. 3)
[4] = test system: Jag-1; test: Jag-1 expression in cultured Lgr5+ cells, Western blot band intensity normalized to GAPDH; format: cell-based, mouse
Procedure: Calculated Jag-1 normalized to GAPDH using GelQuant software and bands quantified. Net volumes of Jag-1 bands were divided by net volume values of matched GAPDH bands. These values were normalized to vehicle in a background of growth factors including: 50 ng/mL EGF (E), 50 ng/mL bFGF (F), and 50 ng/mL IGF1 (I).
Cultures contained a background of growth factors including: 50 ng/mL EGF (E), 50 ng/mL bFGF (F), and 50 ng/mL IGF1 (I).
Calculated Jag-1 normalized to GAPDH using GelQuant software and bands quantified. Net volumes of Jag-1 bands were divided by net volume values of matched GAPDH bands. These values were normalized to vehicle.

[5] = target: GSK-3 alpha (Homo sapiens, UniProt P49840); details: Table 3; cited from earlier work
Chain of GSK-3 alpha (Homo sapiens, UniProt P49840) (P49840 whole entry): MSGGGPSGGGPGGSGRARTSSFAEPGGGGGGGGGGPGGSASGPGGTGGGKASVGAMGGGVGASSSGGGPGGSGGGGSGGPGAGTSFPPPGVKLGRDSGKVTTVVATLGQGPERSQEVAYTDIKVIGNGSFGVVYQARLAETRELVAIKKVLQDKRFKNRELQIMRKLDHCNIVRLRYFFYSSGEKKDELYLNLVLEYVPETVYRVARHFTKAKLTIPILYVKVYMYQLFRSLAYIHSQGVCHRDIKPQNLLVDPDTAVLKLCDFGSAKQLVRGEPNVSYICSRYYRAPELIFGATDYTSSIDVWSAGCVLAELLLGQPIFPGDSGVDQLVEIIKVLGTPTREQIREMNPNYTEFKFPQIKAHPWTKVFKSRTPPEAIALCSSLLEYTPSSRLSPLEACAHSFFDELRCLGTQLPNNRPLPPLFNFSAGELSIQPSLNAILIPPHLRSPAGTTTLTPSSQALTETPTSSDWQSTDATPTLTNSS

[6] = target: GSK-3 alpha (Homo sapiens, UniProt P49841); details: GSK-3 alpha of Table 3; cited from earlier work
Chain of GSK-3 alpha (Homo sapiens, UniProt P49841) (P49841 whole entry): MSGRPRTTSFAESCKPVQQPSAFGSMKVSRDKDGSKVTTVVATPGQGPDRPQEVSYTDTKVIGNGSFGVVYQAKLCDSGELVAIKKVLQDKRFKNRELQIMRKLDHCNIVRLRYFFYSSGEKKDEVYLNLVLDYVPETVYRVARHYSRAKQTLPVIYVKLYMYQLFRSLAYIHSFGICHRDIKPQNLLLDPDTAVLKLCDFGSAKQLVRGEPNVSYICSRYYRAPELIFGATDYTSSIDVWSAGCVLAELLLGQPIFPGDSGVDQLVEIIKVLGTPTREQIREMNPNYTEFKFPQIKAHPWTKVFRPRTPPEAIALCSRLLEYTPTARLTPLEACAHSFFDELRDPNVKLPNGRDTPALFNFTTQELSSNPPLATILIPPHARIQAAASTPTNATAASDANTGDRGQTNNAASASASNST

[7] = test system: HDAC; test: HDAC inhibition in Lgr5 cell culture (FIG. 5); format: cell-based; details: with and without CHIR; EFI background (FIG. 5)
[8] = 1,4-DPCA 370 nM with CHIR 4 μM + VPA 1 mM, versus CHIR+VPA, EFI background
[9] = AS1842856 425 nM alone, EFI background
[10] = AS1842856 concentration series, EFI background (FIG. 7)
[11] = control compounds CHIR99021 4 μM and Valproic Acid 1 mM, EFI background
[12] = SF1670 0.1 μM added to CHIR, versus CHIR, EFI background
[13] = daprodustat 1.11 μM with CHIR 4 μM + VPA 1 mM, versus CHIR and CHIR+VPA, EFI background
[14] = VO-Ohpic 3 μM added to CHIR, versus CHIR, EFI background

Compound: O=C(O)c1c[nH]c2c(ccc3cccnc32)c1=O [1,4-DPCA, 4,4α-dihydro-4-oxo-1,10-phenanthroline-3-carboxylic acid]
- Lgr5 GFP+ progenitor cell proliferation [1, 8]: enhances Lgr5 GFP+ progenitor cell proliferation
- enrichment of Lgr5 GFP+ progenitor cells [1, 8]: shows a trend for enrichment; also recorded: enhances Lgr5 GFP+ progenitor cell proliferation and enrichment
- enrichment of Lgr5 GFP+ cochlear progenitor cells ([1]; agent alone, EFI background): does not enrich; also recorded: does not proliferate or enrich
- proliferation of Lgr5 GFP+ cochlear progenitor cells ([1]; agent alone, EFI background): does not proliferate

Compound: C#CCC(CCCCCC)C(=O)O (centres unmarked) [2-hexyl-4-pentynoic acid]
- Class selectivity [2]: Class I
- HDAC Potenc [2]: 13 µM

Compound: CCn1cc(C(=O)O)c(=O)c2c(N)c(F)c(NC3CCCCC3)cc21 [AS1842856]
- expansion of cochlear Lgr5+ progenitor cells [1, 9]: elicits the expansion
- enrichment of Lgr5 cells (percentage) ([1]; AS1842856 425 nM combined with VPA 1 mM, EFI background): enriched
- LGR5+ cell growth (Lgr5 GFP(+) Cell Count) [1, 10]: concentration-dependent effects; also recorded: enhances expansion of cochlear progenitor cells concentration-dependent manner
- enrichment (Lgr5 GFP (%)) [1, 10]: concentration-dependent effects
- Lgr5-GFP colony formation ([1]; images, AS1842856 425 nM, EFI background): promotes Lgr5-GFP colony formation
- Jag-1 expression ([3]; qPCR, AS1842856 425 nM alone, EFI background): upregulates Jag-1 expression
- Jag-1 expression [4, 9]: upregulates Jag-1 expression

Compound: N#Cc1ccc2[nH]c(O)c(-c3ccc(CN4CCOCC4)cn3)c2c1 [AZD 1080]
- GSK-3 alpha [5]: 6.9 nM

Compound: Cc1c[nH]c(-c2cnc(NCCNc3ccc(C#N)cn3)nc2-c2ccc(Cl)cc2Cl)n1 [CHIR99021]
- enrichment (percent LGR5-GFP(+) cell) of cochlear Lgr5 progenitor cells ([1]; CHIR alone, EFI background): elicits
- expansion (LGR5-GFP(+) cell count) of cochlear Lgr5 progenitor cells ([1]; CHIR alone, background 50 ng/mL EGF, bFGF, IGF1 (EFI)): elicits the expansion
- enrichment of Lgr5 GFP+ cochlear progenitor cells [1, 11]: enrich
- Jag-1 upregulation ([3]; agent alone): upregulated Jag-1

Compound: O=C(O)CNC(=O)c1nc(Cl)c2ccccc2c1O [FG-2216, N-[(1-chloro-4-hydroxy-3-isoquinolinyl)carbonyl]-glycine]
- Lgr5 GFP+ progenitor cell proliferation ([1]; FG-2216 30 μM with CHIR 4 μM + VPA 1 mM, versus CHIR and CHIR+VPA, EFI background): proliferates Lgr5 GFP+ progenitor cell similarly
- enrichment of Lgr5 GFP+ progenitor cells ([1]; FG-2216 30 μM with CHIR 4 μM + VPA 1 mM, versus CHIR+VPA, EFI background): shows a trend for enhanced enrichment
- Lgr5 GFP+ progenitor cell proliferation ([1]; FG-2216 30 μM with CHIR 4 μM, versus CHIR and CHIR+VPA 1 mM, EFI background): enhances Lgr5 GFP+ progenitor cell proliferation
- enrichment of Lgr5 GFP+ progenitor cells ([1]; FG-2216 30 μM with CHIR 4 μM, versus CHIR+VPA 1 mM, EFI background): enhances enrichment; also recorded: enriches Lgr5 GFP+ progenitor cell enrichment
- enrichment of Lgr5 GFP+ cochlear progenitor cells ([1]; agent alone, EFI background): does not enrich; also recorded: does not proliferate or enrich
- proliferation of Lgr5 GFP+ cochlear progenitor cells ([1]; agent alone, EFI background): does not proliferate

Compound: Cc1ccc(C(=O)Nc2c[nH]nc2C(=O)NCCCOC(C)C)cn1 [GSK XXII]
- Lgr5+ Assay ([1]; concentration range in Lgr5+ assay, Table 3): 0.2 to 1 µM
- GSK-3 alpha [5]: 2.3 nM

Compound: O=C1NC(=O)C(c2cnc3ccccn23)=C1c1cn2c3c(cc(F)cc13)CN(C(=O)N1CCCCC1)CC2 [LY2090314, 3-(9-fluoro-2-(piperidine-1-carbonyl)-1,2,3,4-tetrahydro-[1,4]diazepino[6,7,1-hi]indol-7-yl)-4-(imidazo[1,2-a]pyridin-3-yl)-1H-pyrrole-2,5-dione]
- GSK-3 alpha [5]: 2.1 nM
- GSK-3 alpha [6]: 0.9 nM

Compound: CC(C)(C)C(=O)Nc1ccc2c(c1)C(=O)C(=O)c1ccccc1-2 [SF1670]
- enrichment (percent LGR5-GFP(+) cell) of cochlear Lgr5 progenitor cells [1, 12]: further enhanced
- expansion (LGR5-GFP(+) cell count) of cochlear Lgr5 progenitor cells [1, 12]: further enhanced

Compound: CCCC(CCC)C(=O)[O-].[Na+] [Sodium Valproate]
- enrichment of Lgr5 GFP+ cochlear progenitor cells [1, 11]: enrich
- Jag-1 upregulation ([4]; AS1842856 425 nM plus VPA 1 mM, versus AS1842856 alone): enhanced the effects of 425 nM AS1842856 on Jag-1 upregulation
- HDAC inhibition [7]: concentration dependent increase in HDAC inhibition
- Class selectivity [2]: Class I
- HDAC Potenc [2]: 39 to 161 µM

Compound: O=C(O)CNC(=O)C1C(=O)N(C2CCCCC2)C(=O)N(C2CCCCC2)C1=O [daprodustat, N-[(1,3-dicyclohexylhexahydro-2,4,6-trioxo-5-pyrimidinyl)carbonyl]-glycine]
- enrichment of Lgr5 GFP+ cochlear progenitor cells ([1]; agent alone, EFI background): does not enrich; also recorded: does not proliferate or enrich
- proliferation of Lgr5 GFP+ cochlear progenitor cells ([1]; agent alone, EFI background): does not proliferate
- Lgr5 GFP+ progenitor cell proliferation [1, 13]: does not enhance Lgr5 GFP+ progenitor cell proliferation
- enrichment of Lgr5 GFP+ progenitor cells [1, 13]: enhances enrichment

Compound: Jag-1 peptide: soluble Jag-1 peptide (residues 188-204), CDDYYYGFGCNKFCRPR (SEQ ID NO:1) (listed as Homo sapiens)
- Lgr5+ cell proliferation ([1]; 0.25 μM Jag-1 peptide added to 4 μM CHIR, EFI background): able to recapitulate enhancement of Lgr5+ cell proliferation; also recorded: enhances CHIR induced Lgr5+ cell proliferation

Compound: Na phenylbutyrate
- Class selectivity [2]: Class I >
- HDAC Potenc [2]: 9 to 16 µM

Compound: VO-Ohpic
- enrichment (percent LGR5-GFP(+) cell) of cochlear Lgr5 progenitor cells [1, 14]: enhanced
- expansion (LGR5-GFP(+) cell count) of cochlear Lgr5 progenitor cells [1, 14]: enhanced
- Jag-1 upregulation ([3]; VO-Ohpic 3 μM added to CHIR, versus CHIR): enhanced; also recorded: synergistically enhances Jag-1 upregulation
- Jag-1 upregulation ([3]; agent alone, listed as VO): does not upregulate Jag-1
- HDAC inhibition [7]: does not elicit a detectable increase in HDAC inhibition
